Data taken from the NIST ThermoML archive (doi:10.1016/j.fluid.2014.04.002).

Assay: refractive index (Na D-line) (dimensionless); xn = mol fraction of the nth substance listed
Conditions: 101 kPa, Liquid, Standard Abbe refractometry

COCCOCCOCCOCCOC [2,5,8,11,14-pentaoxapentadecane] + CCOC(=O)C(C)O
refractive index
Conditions | x2 = 0 | x2 = 0.0999 | x2 = 0.1999 | x2 = 0.2999 | x2 = 0.3998 | x2 = 0.4999 | x2 = 0.6001 | x2 = 0.6998 | x2 = 0.8001 | x2 = 0.9
288.15 K | 1.43553 | 1.43413 | 1.43253 | 1.43141 | 1.42997 | 1.42831 | 1.42648 | 1.42438 | 1.42214 | 1.41886
293.15 K | 1.43338 | 1.43195 | 1.4304 | 1.42925 | 1.42782 | 1.42614 | 1.42431 | 1.42219 | 1.4199 | 1.41662
298.15 K | 1.43123 | 1.42983 | 1.42826 | 1.42712 | 1.42566 | 1.42398 | 1.42212 | 1.41995 | 1.41764 | 1.41436
303.15 K | 1.42906 | 1.42761 | 1.42612 | 1.42496 | 1.42351 | 1.4218 | 1.41993 | 1.41778 | 1.41537 | 1.41208
308.15 K | 1.42697 | 1.42558 | 1.42399 | 1.4228 | 1.42135 | 1.41964 | 1.41774 | 1.41556 | 1.41312 | 1.4098
313.15 K | 1.42447 | 1.42319 | 1.42182 | 1.42059 | 1.41916 | 1.41744 | 1.41552 | 1.41332 | 1.41084 | 1.40749
318.15 K | 1.42206 | 1.42095 | 1.41972 | 1.41848 | 1.41703 | 1.41528 | 1.41335 | 1.41108 | 1.40853 | 1.40517
323.15 K | 1.41985 | 1.4188 | 1.41762 | 1.41635 | 1.41488 | 1.41315 | 1.41119 | 1.40889 | 1.40622 | 1.40288

CCOC(=O)C(C)O (stereo not drawn) [DL-ethyl lactate] + C1CCOC1
refractive index
Conditions | x1 = 0.1002 | x1 = 0.2001 | x1 = 0.3001 | x1 = 0.4001 | x1 = 0.4999 | x1 = 0.5999 | x1 = 0.6999 | x1 = 0.7999 | x1 = 0.8997 | x1 = 1
288.15 K | 1.41059 | 1.41119 | 1.4118 | 1.41241 | 1.41298 | 1.41349 | 1.41393 | 1.41431 | 1.41475 | 1.41537
293.15 K | 1.40801 | 1.40867 | 1.40932 | 1.40998 | 1.41058 | 1.41112 | 1.41157 | 1.41197 | 1.41242 | 1.41307
298.15 K | 1.40539 | 1.40614 | 1.40687 | 1.40756 | 1.40816 | 1.40871 | 1.40922 | 1.40965 | 1.41017 | 1.41076
303.15 K | 1.40277 | 1.40359 | 1.40438 | 1.4051 | 1.40571 | 1.40628 | 1.40684 | 1.4073 | 1.40787 | 1.40843
308.15 K | 1.40015 | 1.40102 | 1.40187 | 1.40264 | 1.40326 | 1.40392 | 1.40445 | 1.40493 | 1.40546 | 1.4061
313.15 K | 1.3975 | 1.39842 | 1.39936 | 1.40014 | 1.4008 | 1.40149 | 1.40205 | 1.40255 | 1.4031 | 1.40374
318.15 K | 1.39481 | 1.39578 | 1.39672 | 1.39755 | 1.39831 | 1.39899 | 1.3996 | 1.40015 | 1.4007 | 1.40136
323.15 K | 1.39211 | 1.39315 | 1.39416 | 1.39503 | 1.39583 | 1.39655 | 1.3972 | 1.39778 | 1.39834 | 1.39898
